In patent US11377469B2, “CD73 inhibitors” (ORIC Pharmaceuticals, Inc., priority 2017, dated 2022) one finds IC50 data, which are given here for 26 molecules.

Chain of CD73 (P21589 27-574): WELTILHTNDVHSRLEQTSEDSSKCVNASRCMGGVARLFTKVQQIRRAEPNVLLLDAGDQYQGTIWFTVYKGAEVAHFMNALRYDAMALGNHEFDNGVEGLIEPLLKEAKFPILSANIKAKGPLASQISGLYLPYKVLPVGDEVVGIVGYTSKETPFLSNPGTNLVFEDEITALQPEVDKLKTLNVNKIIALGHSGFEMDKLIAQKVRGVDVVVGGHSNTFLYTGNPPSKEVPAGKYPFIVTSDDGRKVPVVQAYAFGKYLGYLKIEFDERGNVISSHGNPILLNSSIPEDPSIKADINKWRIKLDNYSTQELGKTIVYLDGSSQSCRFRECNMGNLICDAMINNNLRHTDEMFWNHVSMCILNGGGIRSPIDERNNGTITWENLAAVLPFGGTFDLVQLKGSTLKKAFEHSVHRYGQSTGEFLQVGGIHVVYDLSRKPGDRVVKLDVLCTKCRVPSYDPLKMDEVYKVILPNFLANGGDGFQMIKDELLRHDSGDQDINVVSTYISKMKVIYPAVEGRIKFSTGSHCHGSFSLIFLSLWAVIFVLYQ

The test addresses CD73 (Homo sapiens (Human), UniProt P21589). In words: Biochemical Assay (CD73 inhibition, AMP hydrolysis, Malachite Green readout). Conditions: CD73 0.3208 nM, AMP 15 μM, Tris-HCl pH 7.4, Malachite Green absorbance.
`O=P(O)(O)CS(=O)(=O)CC[C@H]1O[C@@H](n2ncc3c(NCC4CC4)nc(Cl)nc32)[C@H](O)[C@@H]1O` [Example 88, (((2-((2R,3S,4R,5R)-5-(6-chloro-4-((cyclopropylmethy)amino)-1H-pyrazolo[3,4-d]pyrimidin-1-yl)-3,4-dihydroxytetrahydrofuran-2-yl)ethyl)sulfonyl)methyl)phosphonic acid] came in with a 50% inhibitory concentration (IC50) above 1000 nM. For `Cc1cccc(CNc2nc(Cl)nc3c2cnn3[C@@H]2O[C@H](COCP(=O)(O)O)[C@@H](O)[C@H]2O)c1` [Example 41, ((((2R,3S,4R,5R)-5-(6-chloro-4-((3-methylbenzyl)amino)-1H-pyrazolo[3,4-d]pyrimidin-1-yl)-3,4-dihydroxytetrahydrofuran-2-yl)methoxy)methyl)phosphonic acid], the IC50 is at most 500 nM.

Regarding `O=P(O)(O)COC[C@H]1O[C@@H](n2ncc3c(NC[C@H]4CCCO4)nc(Cl)nc32)[C@H](O)[C@@H]1O` [Example 70, ((((2R,3S,4R,5R)-5-(6-chloro-4-((((R)-tetrahydrofuran-2-yl)methyl)amino)-1H-pyrazolo[3,4-d]pyrimidin-1-yl)-3,4-dihydroxytetrahydrofuran-2-yl)methoxy)methyl)phosphonic acid], the IC50 was at most 500 nM. The figure for `O=P(O)(O)CS(=O)(=O)C[C@H]1O[C@@H](n2ncc3c(NCc4cccc(Cl)c4)nc(Cl)nc32)[C@H](O)[C@@H]1O` [Example 61, (((((2S,3S,4R,5R)-5-(6-chloro-4-((3-chlorobenzyl)amino)-1H-pyrazolo[3,4-d]pyrimidin-1-yl)-3,4-dihydroxytetrahydrofuran-2-yl)methyl)sulfonyl)methyl)phosphonic acid] is at most 500 nM; for `O=P(O)(O)CS(=O)(=O)C[C@H]1O[C@@H](n2nnc3c(NCC4CCC4)nc(Cl)nc32)[C@H](O)[C@@H]1O` [Example 113, (((((2S,3S,4R,5R)-5-(5-chloro-7-((cyclobutylmethyl)amino)-3H-[1,2,3]triazolo[4,5-d]pyrimidin-3-yl)-3,4-dihydroxytetrahydrofuran-2-yl)methyl)sulfonyl)methyl)phosphonic acid] it is at most 500 nM; for `O=P(O)(O)COC[C@H]1O[C@@H](n2ncc3c(NCc4cccc(Cl)c4F)nc(Cl)nc32)[C@H](O)[C@@H]1O` [Example 58, ((((2R,3S,4R,5R)-5-(6-chloro-4-((3-chloro-2-fluorobenzyl)amino)-1H-pyrazolo[3,4-d]pyrimidin-1-yl)-3,4-dihydroxytetrahydrofuran-2-yl)methoxy)methyl)phosphonic acid] it is at most 500 nM. `N#CC1(CNc2nc(Cl)nc3c2cnn3[C@@H]2O[C@H](COCP(=O)(O)O)[C@@H](O)[C@H]2O)CC1` [Example 138, ((((2R,3S,4R,5R)-5-(6-chloro-4-(((1-cyanocyclopropyl)methyl)amino)-1H-pyrazolo[3,4-d]pyrimidin-1-yl)-3,4-dihydroxytetrahydrofuran-2-yl)methoxy)methyl)phosphonic acid]: the half-maximal inhibitory concentration (IC50) was at most 500 nM. The figure for `O=P(O)(O)COC[C@H]1O[C@@H](n2ccc3c(NC4CCCC4)nc(Cl)nc32)[C@H](O)[C@@H]1O` [Example 137, ((((2R,3S,4R,5R)-5-(2-chloro-4-(cyclopentylamino)-7H-pyrrolo[2,3-d]pyrimidin-7-yl)-3,4-dihydroxytetrahydrofuran-2-yl)methoxy)methyl)phosphonic acid] is at most 500 nM; for `O=P(O)(O)COC[C@H]1O[C@@H](n2ncc3c(NC4CCCCC4)nc(Cl)nc32)[C@H](O)[C@@H]1O` [Example 93, ((((2R,3S,4R,5R)-5-(6-chloro-4-(cyclohexylamino)-1H-pyrazolo[3,4-d]pyrimidin-1-yl)-3,4-dihydroxytetrahydrofuran-2-yl)methoxy)methyl)phosphonic acid] it is at most 500 nM; for `O=P(O)(O)COC[C@H]1O[C@@H](n2ncc3c(NCc4cccc(Cl)c4)nc(Cl)nc32)[C@H](O)[C@@H]1O` [Example 27, ((((2R,3S,4R,5R)-5-(6-chloro-4-((3-chlorobenzyl)amino)-1H-pyrazolo[3,4-d]pyrimidin-1-yl)-3,4-dihydroxytetrahydrofuran-2-yl)methoxy)methyl)phosphonic acid] it is at most 500 nM. The molecule `Cc1nc(NCc2cccc(Cl)c2)c2cnn([C@@H]3O[C@H](COCP(=O)(O)O)[C@@H](O)[C@H]3O)c2n1` [Example 44, ((((2R,3S,4R,5R)-5-(4-((3-chlorobenzyl)amino)-6-methyl-1H-pyrazolo[3,4-d]pyrimidin-1-yl)-3,4-dihydroxytetrahydrofuran-2-yl)methoxy)methyl)phosphonic acid] registered an IC50 above 1000 nM. The figure for `C[C@H](Nc1nc(Cl)nc2c1nnn2[C@@H]1O[C@H](CS(=O)(=O)CP(=O)(O)O)[C@@H](O)[C@H]1O)c1ccc(F)cc1` [Example 114] is at most 500 nM; for `O=P(O)(O)CS(=O)(=O)C[C@H]1O[C@@H](n2ncc3c(NCC4CC4)nc(Cl)nc32)[C@H](O)[C@@H]1O` [Example 62] it is at most 500 nM. As for `O=P(O)(O)CS(=O)(=O)C[C@H]1O[C@@H](n2cnc3c(NC4CCCC4)nc(Cl)nc32)[C@H](O)[C@@H]1O` [Example 112, (((((2S,3S,4R,5R)-5-(2-chloro-6-(cyclopentylamino)-9H-purin-9-yl)-3,4-dihydroxytetrahydrofuran-2-yl)methyl)sulfonyl)methyl)phosphonic acid], the 50% inhibitory concentration (IC50) was at most 500 nM. The value for `O=P(O)(O)COC[C@H]1O[C@@H](n2ncc3c(NCc4ncccn4)nc(Cl)nc32)[C@H](O)[C@@H]1O` [Example 90, ((((2R,3S,4R,5R)-5-(6-chloro-4-((pyrimidin-2-ylmethyl)amino)-1H-pyrazolo[3,4-d]pyrimidin-1-yl)-3,4-dihydroxytetrahydrofuran-2-yl)methoxy)methyl)phosphonic acid] was 500 to 1000 nM; that for `O=P(O)(O)COC[C@H]1O[C@@H](n2ccc3c(NCc4ccccc4Cl)nc(Cl)nc32)[C@H](O)[C@@H]1O` [Example 40, ((((2R,3S,4R,5R)-5-(2-chloro-4-((2-chlorobenzyl)amino)-7H-pyrrolo[2,3-d]pyrimidin-7-yl)-3,4-dihydroxytetrahydrofuran-2-yl)methoxy)methyl)phosphonic acid] was at most 500 nM; that for `O=P(O)(O)COC[C@H]1O[C@@H](n2ncc3c(OCc4cccc(Cl)c4)nc(Cl)nc32)[C@H](O)[C@@H]1O` [Example 65, ((((2R,3S,4R,5R)-5-(6-chloro-4-((3-chlorobenzyl)oxy)-1H-pyrazolo[3,4-d]pyrimidin-1-yl)-3,4-dihydroxytetrahydrofuran-2-yl)methoxy)methyl)phosphonic acid] was above 1000 nM.

`O=P(O)(O)COC[C@H]1O[C@@H](n2ncc3c(NCc4ccccc4Cl)nc(Cl)nc32)[C@H](O)[C@@H]1O` [Example 10, ((((2R,3S,4R,5R)-5-(6-chloro-4-((2-chlorobenzyl)amino)-1H-pyrazolo[3,4-d]pyrimidin-1-yl)-3,4-dihydroxytetrahydrofuran-2-yl)methoxy)methyl)phosphonic acid] returned an IC50 of at most 500 nM. Molecule `CC1(C)CCC[C@@H]1Nc1nc(Cl)nc2c1cnn2[C@@H]1O[C@H](COCP(=O)(O)O)[C@@H](O)[C@H]1O` [Example 102, ((((2R,3S,4R,5R)-5-(6-chloro-4-(((S)-2,2-dimethylcyclopentyl)amino)-1H-pyrazolo[3,4-d]pyrimidin-1-yl)-3,4-dihydroxytetrahydrofuran-2-yl)methoxy)methyl)phosphonic acid] gave an IC50 of at most 500 nM.

Regarding “((((2R,3S,4R,5R)-5-(5-chloro-7-((3- chlorobenzyl)pamino)-3H[1,2,3]triazolo[4,5- d]pyrimidin-3-yl)-3,4- dihydroxytetrahydrofuran-2- yl)methoxy)methyl)phosphonic acid [Example 24]”, the concentration for half-maximal inhibition (IC50) is at most 500 nM.

For `Cc1cc2c(NCC3CC3)nc(Cl)nc2n1[C@@H]1O[C@H](COCP(=O)(O)O)[C@@H](O)[C@H]1O` [Example 97, ((((2R,3S,4R,5R)-5-(2-chloro-4-((cyclopropylmethyl)amino)-6-methyl-7H-pyrrolo[2,3-d]pyrimidin-7-yl)-3,4-dihydroxytetrahydrofuran-2-yl)methoxy)methyl)phosphonic acid], the concentration for half-maximal inhibition (IC50) is above 1000 nM. The value for `O=P(O)(O)COC[C@H]1O[C@@H](n2ncc3c(NCC4CC4)nc(Cl)nc32)[C@H](O)[C@@H]1O` [Example 38, ((((2R,3S,4R,5R)-5-(6-chloro-4-((cyclopropylmethyl)amino)-1H-pyrazolo[3,4-d]pyrimidin-1-yl)-3,4-dihydroxytetrahydrofuran-2-yl)methoxy)methyl)phosphonic acid] was at most 500 nM; that for `O=P(O)(O)COC[C@H]1O[C@@H](n2ncc3c(NCC4CCC4)nc(Cl)nc32)[C@H](O)[C@@H]1O` [Example 68, ((((2R,3S,4R,5R)-5-(6-chloro-4-((cyclobutylmethyl)amino)-1H-pyrazolo[3,4-d]pyrimidin-1-yl)-3,4-dihydroxytetrahydrofuran-2-yl)methoxy)methyl)phosphonic acid] was at most 500 nM; that for `COP(=O)(CP(=O)(O)O)OC[C@H]1O[C@@H](n2nnc3c(NC4CCCC4)nc(Cl)nc32)[C@H](O)[C@@H]1O` (stereo partly drawn) [Example 106, (((((2R,3S,4R,5R)-5-(5-chloro-7-(cyclopentylamino)-3H-[1,2,3]triazolo[4,5-d]pyrimidin-3-yl)-3,4-dihydroxytetrahydrofuran-2-yl)methoxy)(methoxy)phosphoryl)methyl) phosphonic acid] was at most 500 nM. The value for `C[C@@H](c1cccc(Cl)c1)N(C)c1nc(Cl)nc2c1cnn2[C@@H]1O[C@H](COCP(=O)(O)O)[C@@H](O)[C@H]1O` [Example 36] was above 1000 nM; that for `O=P(O)(O)COC[C@H]1O[C@@H](n2ncc3c(N[C@H]4CCc5ccccc54)nc(Cl)nc32)[C@H](O)[C@@H]1O` [Example 25, ((((2R,3S,4R,5R)-5-(6-chloro-4-(((S)-2,3-dihydro-1H-inden-1-yl)amino)-1H-pyrazolo[3,4-d]pyrimidin-1-yl)-3,4-dihydroxytetrahydrofuran-2-yl)methoxy)methyl)phosphonic acid] was at most 500 nM.
